Source: patent publication US20240082347A1, “TREATMENT OF CORONAVIRUS” (priority 2021, published 2024)
“Also recorded” adds a separate entry of the source.

How the values were obtained:
[1] = test system: SARS-CoV-2 binding to Human Aortic Endothelial Cells (HAoEC); format: cell-based
[2] = target: T1, Recombinant integrin αVβ3 (binding of SARS-CoV-2 spike protein) (Homo sapiens, UniProt P05106+P06756); assay: Fluorescent-based protein interaction assay, spike protein and αVβ3; details: FIG. 8
T1 construct: purchased BioTechne 3050-AV-050

[3] = test system: SARS-CoV-2 binding to human colorectal epithelial cells (Caco-2); format: cell-based
sheared HAoEC = assay: Transwell permeability assay (FITC-Dextran) after SARS-CoV-2 infection; format: cell-based, human; details: 0.0005 μM; SARS-CoV-2 infection 24 hours; FIG. 5A
[4] = test system: VE-Cadherin expression on sheared HAoEC; format: cell-based, human; details: 0.0005 μM
[5] = test system: VE-Cadherin in endothelial cells; assay: SDS-PAGE and Western blot of VE-Cadherin after ex vivo infection assay; format: cell-based, human; details: healthy, infected and treated cells; 0.0005 μM
Experimental: Following the ex vivo infection assay, endothelial cells were lysed in RIPA buffer and stored at −20° C. until use. Samples were separated on a 10% SDS-PAGE gel. Following this, proteins were transferred onto a nitrocellulose membrane and blocked for 1 hour using 5% skimmed milk. The membrane was probed using anti-VE Cadherin primary antibody (Clone: F-8, Cat. No: sc-9989, 1:200, SantaCruz) and anti-GAPDH primary antibody (6000-4-1 mouse mAB, 1:2000, ProteinTech), overnight at 4° C. Anti-mouse IgG secondary antibodies (sc525405, 1:5000, SantaCruz) were used the following day. Proteins were detected using chemiluminescence.

T1 sequence (P06756 31-992 limits assumed): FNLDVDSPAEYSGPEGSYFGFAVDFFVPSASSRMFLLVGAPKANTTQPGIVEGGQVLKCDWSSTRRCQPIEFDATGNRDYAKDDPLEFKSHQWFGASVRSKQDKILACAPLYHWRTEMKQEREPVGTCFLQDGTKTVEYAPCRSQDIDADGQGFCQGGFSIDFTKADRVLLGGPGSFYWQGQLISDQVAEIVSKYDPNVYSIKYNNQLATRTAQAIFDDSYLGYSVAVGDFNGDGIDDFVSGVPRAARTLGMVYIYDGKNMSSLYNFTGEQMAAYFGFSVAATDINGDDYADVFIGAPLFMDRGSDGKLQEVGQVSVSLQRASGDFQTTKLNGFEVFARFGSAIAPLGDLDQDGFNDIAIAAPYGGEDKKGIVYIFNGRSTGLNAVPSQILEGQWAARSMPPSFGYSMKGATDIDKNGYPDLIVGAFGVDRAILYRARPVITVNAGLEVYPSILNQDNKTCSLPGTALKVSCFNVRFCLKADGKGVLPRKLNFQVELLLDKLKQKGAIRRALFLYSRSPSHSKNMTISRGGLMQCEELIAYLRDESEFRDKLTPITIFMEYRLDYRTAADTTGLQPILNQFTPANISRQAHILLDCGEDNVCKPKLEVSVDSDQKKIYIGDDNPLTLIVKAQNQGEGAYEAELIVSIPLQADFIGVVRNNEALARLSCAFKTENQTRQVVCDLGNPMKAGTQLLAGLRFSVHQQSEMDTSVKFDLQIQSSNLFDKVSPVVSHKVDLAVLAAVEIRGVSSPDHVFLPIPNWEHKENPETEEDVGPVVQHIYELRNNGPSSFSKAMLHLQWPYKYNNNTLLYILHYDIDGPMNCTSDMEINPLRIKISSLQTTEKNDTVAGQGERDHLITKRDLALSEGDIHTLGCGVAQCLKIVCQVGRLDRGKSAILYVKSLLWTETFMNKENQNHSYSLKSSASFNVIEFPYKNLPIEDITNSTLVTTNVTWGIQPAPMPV
T1 sequence (P05106 27-718 limits assumed): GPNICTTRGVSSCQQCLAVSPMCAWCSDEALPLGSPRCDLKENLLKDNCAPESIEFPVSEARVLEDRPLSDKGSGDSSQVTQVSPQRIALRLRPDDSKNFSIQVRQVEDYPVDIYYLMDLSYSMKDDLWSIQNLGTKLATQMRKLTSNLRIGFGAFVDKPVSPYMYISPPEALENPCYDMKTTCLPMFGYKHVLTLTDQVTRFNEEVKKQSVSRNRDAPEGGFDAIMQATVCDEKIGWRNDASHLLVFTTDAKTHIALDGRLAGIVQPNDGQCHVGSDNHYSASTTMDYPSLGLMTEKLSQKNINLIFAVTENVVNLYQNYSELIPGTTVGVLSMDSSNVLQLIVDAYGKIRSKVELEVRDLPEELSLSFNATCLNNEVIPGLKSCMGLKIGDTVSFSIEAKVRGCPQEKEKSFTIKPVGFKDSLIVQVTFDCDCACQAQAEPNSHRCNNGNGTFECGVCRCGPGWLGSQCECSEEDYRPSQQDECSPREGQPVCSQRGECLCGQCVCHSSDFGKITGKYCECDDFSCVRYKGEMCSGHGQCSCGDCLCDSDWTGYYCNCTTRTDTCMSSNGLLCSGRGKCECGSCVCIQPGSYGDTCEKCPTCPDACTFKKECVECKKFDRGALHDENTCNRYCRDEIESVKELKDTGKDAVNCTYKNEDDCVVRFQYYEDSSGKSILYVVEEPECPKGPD

| SMILES | viral (SARS-CoV-2) attachment to human vascular endothelial cells [1] | recombinant spike protein binding to integrin αVβ3, comparison of GLPG0187 with Cilengitide [2] | SARS-CoV-2 binding to endothelial cells, dose response [1] | virus (SARS-CoV-2) attachment to human vascular endothelial cells [1] | SARS-CoV-2 binding to human colorectal epithelial cells [3] | endothelial barrier permeability (FITC-Dextran, 40 kDa) (sheared HAoEC) | VE-Cadherin surface expression (mean fluorescence), marker of barrier integrity [4] | internalisation of VE-Cadherin following SARS-CoV-2 infection [4] | Total VE-Cadherin [5] |
| --- | --- | --- | --- | --- | --- | --- | --- | --- | --- |
| COc1ccc(S(=O)(=O)N[C@@H](CNc2nc(C)nc(N3CCC(c4ccc5c(n4)NCCC5)CC3)c2C)C(=O)O)cc1 [GLPG0187] | failed to inhibit viral (SARS-CoV-2) attachment to human vascular endothelial cells | Cilengitide is significantly more effective |  |  |  |  |  |  |  |
| CNc1cccc(CCOc2ccc3c(c2)CN(CC(F)(F)F)C(=O)[C@H](CC(=O)O)C3)n1 [SB-273005] | failed to inhibit viral (SARS-CoV-2) attachment to human vascular endothelial cells; also recorded: unsuccessful at reducing SARS-CoV-2 binding to human endothelial cells |  |  |  |  |  |  |  |  |
| CC(C)[C@H]1C(=O)N[C@@H](CCCN=C(N)N)C(=O)NCC(=O)N[C@@H](CC(=O)O)C(=O)N[C@H](Cc2ccccc2)C(=O)N1C [Cilengitide, cyclo(-RGDf(NMe)V-)] |  |  | in a dose-dependent manner; also recorded: significantly prevents both attachment to the host and disruption of barrier integrity; also recorded: Statistical significance was found between the no drug control and each Cilengitide treated group | dose dependently inhibits virus (SARS-CoV-2) attachment to human vascular endothelial cells | effectively reduces SARS-CoV-2 binding to human colorectal epithelial cells | limited the occurrence of barrier permeability; also recorded: restored after treating cells with Cilengitide | prevented VE-cadherin reduction during infection; also recorded: returning VE-cadherin levels back to uninfected levels; also recorded: re-established the barrier integrity; also recorded: barrier permeability was restored back to uninfected levels | internalisation of VE-Cadherin is prevented | Total VE-Cadherin remains consistent |
